# How the values were obtained:
# [1] = test system: Spodoptera littoralis larvae; assay: Bioassay on Spodoptera littoralis larvae fed with peptide-treated tomato leaves; assay type: in vivo; details: day 13, femtomolar concentration; for average weight of larvae: control 59 mg (FIG. 11A); for survival rate of larvae: control 100% (FIG. 11B)
# Procedure: Briefly, S. littoralis larvae were grown in a climate chamber at 25° C., 70% relative humidity (RH), with a 16-hour light and 8-hour dark photoperiod and fed with an artificial diet until completion of the first moult. For the bioassays, 150 larvae for each thesis were grown on tomato leaves for the entire duration of the second instar to adapt them to the different diet. The newly moulted third-instar larvae up to the moult stage were fed with plants on which a composition comprising peptides PS1-70 and PS1-120 had been applied at 100 pM and 100 fM concentrations in 1×PBS buffer. Larvae fed with plants treated with 1×PBS buffer only were used as a control. Bioassays were carried out under the same environmental conditions, in 32-well plastic trays containing 1.5% (w/v) agar and 0.005% (w/v) methyl parahydroxybenzoate, which are useful for creating a humid environment for maintaining cell turgor of tomato leaves. Each experimental group consisted of 32 larvae. The survival of the larvae was monitored daily, and their weight every other day. […] A significant decrease in the survival of larvae fed with leaves of plants treated with the peptides of the invention compared to those fed with leaves of the control plants was also observed for both assays (FIGS. 10B and 10D). […] The same assay scheme was carried out by the present inventors by feeding S. littoralis larvae with leaves treated with the peptide PS1-70 and with peptides having the sequences SEQ ID NO. 3, 5, and 8 at femtomolar concentration. […] A significant decrease was also observed in the survival of larvae fed with peptide-treated leaves compared to those fed with the control leaves (FIG. 11B). […] 8, SEQ ID NO. 3, and SEQ ID NO. 5 (FIG. 11B).
# Botrytis cinerea = Botrytis cinerea necrosis areas on treated detached tomato leaves; assay type: in vivo, Botrytis cinerea on Solanum lycopersicum; details: 100 fM, day 8, control 11.72 mm^2 (FIG. 13)
# Procedure: (§1) For the performance of assays on the phytopathogenic Botrytis cinerea and Alternaria alternata fungi, the present inventors used spores of this microorganism obtained from cultures on solid PDA (Potato Dextrose Agar) sporulation substrate. The plates were inoculated with 20 μl of a conidial suspension at a concentration of 1×10^6 spores/ml and incubated for 15 days at 25° C. in the presence of diffused light, so as to obtain complete sporulation. The spores were then collected in 5 ml of sterile water and, in order to remove the mycelium, were filtered through glass wool, washed with sterile distilled water and collected by centrifugation at room temperature. The concentration of spores suitable for inoculation (10^5-10^7 spores/ml) was determined by the serial dilution method using a Burker cell counting chamber for spore counting.
# (§2) The assay was carried out on a detached leaf by taking a compound leaf for each treated tomato plant and for each control plant. Each leaflet of the compound leaf was marked with 3 markers in order to guide the subsequent application of the spores and detection of the pathogen developing necrotic areas.
# The leaves were treated by applying 2 μl of a composition comprising the peptides PS1-70 and PS1-120 of the invention at a concentration of 100 pM, 100 fM or 1×PBS for the control leaves. After 6 hours, the time necessary for the perception of the peptides, the leaves were detached from the plant and inoculations with 10 μl of spore solution were carried out in the internerve spaces and near the previously marked points. Monitoring was carried out by measuring the necrosis areas (expressed in mm^2) 1, 3, 5, 8 days after inoculation of the pathogen. The necrosis areas recorded on the control leaves were much larger than those detected on plants treated with the peptides of the invention. This difference increased as a function of the time elapsed since inoculation. The resistance inducing effect of the picomolar treatment is already statistically significant from the first day of inoculation of the pathogen up to the eighth day where values of 33 mm^2 were reached on the control leaves, unlike the treated leaves where values not exceeding 18 mm^2 were recorded for both peptides (FIG. 12A).
# Alternaria alternata = Alternaria alternata necrosis areas on treated tomato leaves; assay type: in vivo; details: 100 fM, day 8, control 17 mm^2 (FIG. 14B)
# Procedure: as §1, §2
# The present inventors also performed assays aimed at determining the effects of exogenous application of the peptides of the invention on tomato plants against the development of the necrotrophic Alternaria alternata fungus (FIG. 14).
# The positive effect of the treatment was statistically significant from day 1 of inoculation of the pathogen to day 8 where values of 24 mm^2 were reached on the control leaves, unlike the treated leaves where values of 8.4 and 8.0 mm^2 were recorded on leaves treated with the peptides PS1-70 and PS1-120 at a concentration of 100 fM (FIG. 14A); and values of 17 mm^2 were recorded on the control leaves and values of 8.3 mm^2, 7.9 mm^2, 8.9 mm^2, and 7.8 mm^2 were recorded on leaves treated with the peptides PS1-70, SEQ ID NO.8, SEQ ID NO.3 and SEQ ID NO.5, respectively, at a concentration of 100 fM (FIG. 14B).
# CAT2, SAM and APX2 genes = assay: Salt stress gene expression in tomato plants irrigated with 100 fM peptides; assay type: in vivo; details: femtomolar
# Procedure: The analysis was carried out on the CAT2(A), SAM (B) and APX2 (C) genes. The asterisks indicate the statistical significance of the data by Student's t-test (*p<0.05; **p<0.01; ***p<0.001). […] An experiment was also set up to verify the efficiency of the peptides PS1-70, PS1-120 and SEQ ID NO.5, when administered at femtomolar concentrations, in promoting tolerance to a high salt stress condition.
# [2] = Biometric parameters of tomato plants irrigated with peptides; assay type: in vivo; details: 100 fM
# Procedure: FIG. 20 illustrates the effect of irrigation treatment with the peptides PS1-70, PS1-120 and SEQ ID NO.5 at a concentration of 100 fM on the biometric parameters of the tomato plant. […] The asterisks indicate the statistical significance of the data by Student's t-test (*p<0.05). A few biometric parameters are shown in FIG. 20, measured after 14 days of continuous salt stress (150 mM) and 15 days after irrigation with the peptides PS1-70, PS1-120 and SEQ ID NO.5 at 100 fM concentrations, and the respective controls.
sequence,measurement,setting,value
DDMQEEPKVKLHHEKG [SEQ ID NO. 5],average weight of larvae,[1],21 mg
same,survival rate of larvae,[1],15.62%
same,necrosis areas,Botrytis cinerea,6.81 mm^2
same,necrosis areas,Alternaria alternata,7.8 mm^2
same,activation of salt stress-responsive genes,"CAT2, SAM and APX2 genes; 8 days after irrigation, 0 mM NaCl (FIG. 18A1, B1, C1)",able to activate a series of salt stress-responsive genes
same,tolerance to salt / induction of responsive genes,"CAT2, SAM and APX2 genes; irrigated 7 days with 150 mM NaCl (FIG. 18A2, B2, C2)",more salt-tolerant than the untreated control plants
same,root surface (root area),"[2]; 14 days of salt stress 150 mM, 15 days after irrigation (FIG. 20A)",greater root surface
same,growth (fresh weight) of the aerial part,[2]; absence of salt (FIG. 20B),able to promote the growth of the aerial part of the plant
DDMQEEPKVKLHHEKGGDEKEKIIEKETPSQDI [SEQ ID NO. 8],average weight of larvae,[1],13 mg
same,survival rate of larvae,[1],15.62%
same,necrosis areas,Botrytis cinerea,7.67 mm^2
same,necrosis areas,Alternaria alternata,7.9 mm^2
EKETPSQDI [SEQ ID NO. 3],average weight of larvae,[1],24 mg
same,survival rate of larvae,[1],43.75%
same,necrosis areas,Botrytis cinerea,8.89 mm^2
same,necrosis areas,Alternaria alternata,8.9 mm^2

# Reference: patent US20230270119A1, “BIOSTIMULANT AND BIOPROTECTIVE PEPTIDES AND THEIR USE IN AGRICULTURE” (priority 2020, published 2023)
